The values that follow come from patent US12540131B2 (Merck Sharp & Dohme LLC, priority 2019, dated 2026).

Chain of GST tagged truncated human mutant G2019S LRRK2 (Q5S007 970-2527 G2019S): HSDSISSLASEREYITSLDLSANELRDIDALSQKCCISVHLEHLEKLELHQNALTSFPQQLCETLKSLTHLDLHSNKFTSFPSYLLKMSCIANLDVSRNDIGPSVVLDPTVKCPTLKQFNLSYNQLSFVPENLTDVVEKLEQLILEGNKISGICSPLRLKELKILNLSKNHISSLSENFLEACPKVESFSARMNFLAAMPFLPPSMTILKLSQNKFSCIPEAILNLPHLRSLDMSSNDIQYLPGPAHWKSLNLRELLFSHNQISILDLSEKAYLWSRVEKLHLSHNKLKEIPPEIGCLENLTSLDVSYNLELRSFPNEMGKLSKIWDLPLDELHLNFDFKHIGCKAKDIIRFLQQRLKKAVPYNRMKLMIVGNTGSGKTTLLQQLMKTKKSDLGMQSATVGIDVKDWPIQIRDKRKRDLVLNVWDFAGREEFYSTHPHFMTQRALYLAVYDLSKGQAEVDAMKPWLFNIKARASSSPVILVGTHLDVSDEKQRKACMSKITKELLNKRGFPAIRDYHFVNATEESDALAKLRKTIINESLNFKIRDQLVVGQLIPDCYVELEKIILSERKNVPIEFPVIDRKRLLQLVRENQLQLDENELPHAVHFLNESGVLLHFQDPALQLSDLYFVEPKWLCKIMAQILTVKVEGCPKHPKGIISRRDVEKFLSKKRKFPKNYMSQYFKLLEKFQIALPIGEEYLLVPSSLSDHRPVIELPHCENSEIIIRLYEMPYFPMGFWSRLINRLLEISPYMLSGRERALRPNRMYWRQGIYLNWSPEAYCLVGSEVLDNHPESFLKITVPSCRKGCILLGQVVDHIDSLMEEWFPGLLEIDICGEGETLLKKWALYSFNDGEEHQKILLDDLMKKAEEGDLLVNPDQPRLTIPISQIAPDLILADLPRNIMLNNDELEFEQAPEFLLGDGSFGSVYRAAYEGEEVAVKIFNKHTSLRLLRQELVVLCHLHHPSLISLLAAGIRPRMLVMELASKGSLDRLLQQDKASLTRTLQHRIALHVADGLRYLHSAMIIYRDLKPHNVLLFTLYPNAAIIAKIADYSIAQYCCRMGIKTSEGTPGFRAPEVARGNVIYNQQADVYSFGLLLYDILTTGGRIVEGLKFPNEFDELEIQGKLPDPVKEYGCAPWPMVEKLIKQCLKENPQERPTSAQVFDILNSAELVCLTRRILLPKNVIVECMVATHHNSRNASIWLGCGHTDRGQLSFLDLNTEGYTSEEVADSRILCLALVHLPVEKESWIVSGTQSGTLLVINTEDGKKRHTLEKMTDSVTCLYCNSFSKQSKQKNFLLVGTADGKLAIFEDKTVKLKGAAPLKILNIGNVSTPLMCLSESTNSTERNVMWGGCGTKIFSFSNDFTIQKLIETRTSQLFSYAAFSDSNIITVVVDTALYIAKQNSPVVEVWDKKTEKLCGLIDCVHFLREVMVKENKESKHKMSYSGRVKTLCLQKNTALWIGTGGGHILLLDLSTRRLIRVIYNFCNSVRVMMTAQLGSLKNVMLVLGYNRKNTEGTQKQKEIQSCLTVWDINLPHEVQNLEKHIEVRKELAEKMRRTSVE

One assay addresses GST tagged truncated human mutant G2019S LRRK2 (Homo sapiens (Human), UniProt Q5S007, G2019S). The experiment in a line: LRRK2 Km ATP LanthaScreen Assay. In kind it is biochemical. Conditions: G2019S LRRK2, 134 μM ATP (Km ATP), mean values. In outline: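 Enzyme (GST-tagged, truncated) was preincubated with compound for 15 min at RT in 50 mM Tris pH 8.5, 10 mM MgCl2, 0.01% Brij-35, 1 mM EGTA, 2 mM DTT and 0.05 mM orthovanadate. Fluorescein-LRRKtide and 134 μM ATP (Km) were then added for 90 min. EDTA and Tb-anti-pERM antibody stopped the reaction; the TR-FRET 520/495 ratio gave 4-parameter IC50s, reported as mean pIC50.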
For orientation: Time-resolved FRET reads energy transfer from a long-lived donor to a nearby acceptor.
Consider `O[C@H]1COC[C@H]1N1CC[C@@H](c2cc3nc(Nc4cnn(C56CC(F)(C5)C6)c4Cl)ncc3cc2Cl)[C@H](F)C1` (single isomer, unassigned) [Ex-4.231, (3S,4S)(3S,4S) or (3S,4S)(3R,4R) or (3R,4R)(3S,4S) or (3R,4R)(3R,4R) 4-[4-(6-chloro-2-{[5-chloro-1-(3-fluorobicyclo[1.1.1]pentan-1-yl)-1H-pyrazol-4-yl]amino}quinazolin-7-yl)-3-fluoropiperidin-1-yl]oxolan-3-ol], for which the “LRRK2 pIC50” value is greater than 9.20.
In the case of `Cc1cc2cnc(Nc3cnn(CC(C)(C)O)c3Cl)nc2cc1[C@H]1CCN(C2COC2)C[C@@H]1F` (single isomer, unassigned) [Ex-4.83, (3S,4S) or (3R,4R) 1-[5-chloro-4-({7-[3-fluoro-1-(oxetan-3-yl)piperidin-4-yl]-6-methylquinazolin-2-yl}amino)-1H-pyrazol-1-yl]-2-methylpropan-2-ol], the “LRRK2 pIC50” value is listed as 9.14.
On the same count and under the same terms, in the case of `Cc1c(Nc2ncc3cc(Cl)c([C@@H]4CCN(C5COC5)C[C@H]4F)cc3n2)cnn1C1CC1(F)F` (single isomer, unassigned) [Ex-4.178, (R)(3S,4S) or (S)(3S,4S) or (R)(3R,4R) or (S)(3R,4R) 6-chloro-N-[1-(2,2-difluorocyclopropyl)-5-methyl-1H-pyrazol-4-yl]-7-[(3R,4R)-3-fluoro-1-(oxetan-3-yl)piperidin-4-yl]quinazolin-2-amine] it was 8.58.
On the same count and under the same terms, for `Cc1cc2cnc(Nc3cnn(C4CC4(F)F)c3Cl)nc2cc1[C@@H]1CCN(C2COC[C@@H]2O)C[C@H]1F` (single isomer, unassigned) [Ex-4.137, (R)(3S,4S)(3S,4S) or (R)(3S,4S)(3R,4R) or (R)(3R,4R)(3S,4S) or (R)(3R,4R)(3R,4R) or (S)(3S,4S)(3S,4S) or (S)(3S,4S)(3R,4R) or (S)(3R,4R)(3S,4S) or (S)(3R,4R)(3R,4R) 4-[4-(2-{[5-chloro-1-(2,2-difluorocyclopropyl)-1H-pyrazol-4-yl]amino}-6-methylquinazolin-7-yl)-3-fluoropiperidin-1-yl]oxolan-3-ol] the value was greater than 9.20.
Same read-out and setting: for `Cc1cc2cnc(Nc3cnn(C45CC(C4)C5)c3Cl)nc2cc1[C@H]1CCN([C@@H]2COC[C@@H]2O)C[C@@H]1F` (single isomer, unassigned) [Ex-8.35, (3S,4S)(3S,4S) or (3S,4S)(3R,4R) or (3R,4R)(3S,4S) or (3R,4R)(3R,4R) 4-[4-(2-{[1-(bicyclo[1.1.1]pentan-1-yl)-5-chloro-1H-pyrazol-4-yl]amino}-6-methylquinazolin-7-yl)-3-fluoropiperidin-1-yl]oxolan-3-ol] the value was 8.68; for `Cc1c(Nc2ncc3cc(Cl)c(C4CCN(C[C@H](O)c5ccc(F)c(F)c5)CC4)cc3n2)cnn1C1CC1` [Ex-4.199, (1R)-2-(4-{6-chloro-2-[(1-cyclopropyl-5-methyl-1H-pyrazol-4-yl)amino]quinazolin-7-yl}piperidin-1-yl)-1-(3,4-difluorophenyl)ethan-1-ol], 7.96.
As for `CC(n1ncc(Nc2ncc3cc(Cl)c([C@@H]4CCN(C)C[C@H]4F)cc3n2)c1Cl)C(C)(C)O` (single isomer, unassigned) [Ex-4.61, (R)(3S,4S) or (R)(3R,4R) or (S)(3S,4S) or (S)(3R,4R) 3-(5-chloro-4-{[6-chloro-7-(3-fluoro-1-methylpiperidin-4-yl)quinazolin-2-yl]amino}-1H-pyrazol-1-yl)-2-methylbutan-2-ol], the “LRRK2 pIC50” value came to 8.80.
Same read-out and setting: in the case of `CC1(n2ncc(Nc3ncc4cc(Cl)c([C@H]5CCNC[C@@H]5F)cc4n3)c2Cl)CC1` (single isomer, unassigned) [Ex-4.92, (3S,4S) or (3R,4R) 6-chloro-N-[5-chloro-1-(1-methylcyclopropyl)-1H-pyrazol-4-yl]-7-(3-fluoropiperidin-4-yl)quinazolin-2-amine] it was greater than 9.20; in that of `Cc1c(Nc2ncc3cc(Cl)c([C@@H]4CCN(C5COC5)C[C@H]4F)cc3n2)cnn1C1CC1(F)F` (single isomer, unassigned) [Ex-4.177, (R)(3S,4S) or (S)(3S,4S) or (R)(3R,4R) or (S)(3R,4R) 6-chloro-N-[1-(2,2-difluorocyclopropyl)-5-methyl-1H-pyrazol-4-yl]-7-[(3R,4R)-3-fluoro-1-(oxetan-3-yl)piperidin-4-yl]quinazolin-2-amine], 9.16.
The same measure, in the same setting: in the case of `CN1CC[C@H](c2cc3nc(Nc4cnn(C5(C)CC5)c4Cl)ncc3cc2Cl)[C@@H](O)C1` (single isomer, unassigned) [Ex-4.30, (3S,4S) or (3R,4R) 4-(6-chloro-2-{[5-chloro-1-(1-methylcyclopropyl)-1H-pyrazol-4-yl]amino}quinazolin-7-yl)-1-methylpiperidin-3-ol] it was 7.32; in that of `Cc1c(Nc2ncc3cc(C(F)(F)F)c(C4CCN([C@@]5(C)COC[C@H]5O)CC4)cc3n2)cnn1C1CC1` (single isomer, unassigned) [Ex-9.1, (3S,4S) or (3R,4R) 4-(4-(2-((1-cyclopropyl-5-methyl-1H-pyrazol-4-yl)amino)-6-(trifluoromethyl)quinazolin-7-yl)piperidin-1-yl)-4-methyltetrahydrofuran-3-ol], 9.19.
On the same count and under the same terms, in the case of `Cc1c(Nc2ncc3cc(Cl)c([C@@H]4CCN(C5COC[C@@H]5O)C[C@H]4F)cc3n2)cnn1C1CC1` (single isomer, unassigned) [Ex-4.127, (3S,4S)(3S,4S) or (3S,4S)(3R,4R) or (3R,4R)(3S,4S) or (3R,4R)(3R,4R) 4-[4-{6-chloro-2-[(1-cyclopropyl-5-methyl-1H-pyrazol-4-yl)amino]quinazolin-7-yl}-3-fluoropiperidin-1-yl]oxolan-3-ol] it was greater than 9.20; in that of `Cc1nsc(Nc2ncc3cc(Cl)c([C@@H]4CCN(C5CCOC5)C[C@H]4F)cc3n2)c1Cl` (single isomer, unassigned) [Ex-8.21, (3S,4S)(S) or (3S,4S)(R) or (3R,4R)(S) or (3R,4R)(R) 6-chloro-N-(4-chloro-3-methyl-1,2-thiazol-5-yl)-7-[3-fluoro-1-(oxolan-3-yl)piperidin-4-yl]quinazolin-2-amine], 8.44.
Consider `CO[C@H]1COC[C@H]1N1CC[C@@H](c2cc3nc(Nc4cnn(C5CC5)c4Cl)ncc3cc2C)[C@H](F)C1` (single isomer, unassigned) [Ex-4.261, (3S,4S)(3S,4S) or (3S,4S)(3R,4R) or (3R,4R)(3S,4S) or (3R,4R)(3R,4R) N-(5-chloro-1-cyclopropyl-1H-pyrazol-4-yl)-7-[3-fluoro-1-(4-methoxyoxolan-3-yl)piperidin-4-yl]-6-methylquinazolin-2-amine], for which the “LRRK2 pIC50” value was 7.51.
On the same count and under the same terms, in the case of `Cc1cc(Nc2ncc3cc(Cl)c(C4CCN(C)CC4F)cc3n2)sn1` (stereo in doubt) [Ex-4.52, (3S,4R) or (3R,4R) 6-chloro-7-(3-fluoro-1-methylpiperidin-4-yl)-N-(3-methyl-1,2-thiazol-5-yl)quinazolin-2-amine] it was 9.06; in that of `Cc1c(Nc2ncc3cc(Cl)c(C4CCN([C@@H]5COC[C@@H]5O)CC4)cc3n2)cnn1C1CC1` (single isomer, unassigned) [Ex-4.131, (3S,4S) or (3R,4R) 4-(4-{6-chloro-2-[(1-cyclopropyl-5-methyl-1H-pyrazol-4-yl)amino]quinazolin-7-yl}piperidin-1-yl)oxolan-3-ol], 8.62; in that of `Cc1cc2cnc(Nc3cnn(C4(C)CC4)c3Cl)nc2cc1C1CCN(CCC#N)CC1` [Ex-5.2, 3-(4-(2-((5-chloro-1-(1-methylcyclopropyl)-1H-pyrazol-4-yl)amino)-6-methylquinazolin-7-yl)piperidin-1-yl)propanenitrile], greater than 9.20.
On to `Cn1ncc(Nc2ncc3cc(Cl)c([C@@H]4CCN([C@@H]5COC[C@@H]5O)C[C@H]4F)cc3n2)c1Cl` (single isomer, unassigned) [Ex-4.186, (3S,4S)(3S,4S) or (3S,4S)(3R,4R) or (3R,4R)(3S,4S) or (3R,4R)(3R,4R) 4-(4-{6-chloro-2-[(5-chloro-1-methyl-1H-pyrazol-4-yl)amino]quinazolin-7-yl}-3-fluoropiperidin-1-yl)oxolan-3-ol], for which the “LRRK2 pIC50” value is 7.95.
`Cc1cc2cnc(Nc3cnn(C4CC4(F)F)c3C)nc2cc1C1CCN([C@@H]2COC[C@@H]2O)CC1` (single isomer, unassigned) [Ex-4.142, (R)(3S,4S) or (S)(3S,4S) or (R)(3R,4R) or (S)(3R,4R) 4-[4-(2-{[1-(2,2-difluorocyclopropyl)-5-methyl-1H-pyrazol-4-yl]amino}-6-methylquinazolin-7-yl)piperidin-1-yl]oxolan-3-ol]: the “LRRK2 pIC50” value came out at 8.94.
Still for that read-out and setting: in the case of `Cc1c(Nc2ncc3cc(Cl)c(C4CCN(CC5(O)CCOCC5)CC4)cc3n2)cnn1C1CC1` [Ex-4.210, 4-[(4-{6-chloro-2-[(1-cyclopropyl-5-methyl-1H-pyrazol-4-yl)amino]quinazolin-7-yl}piperidin-1-yl)methyl]oxan-4-ol] it was 8.55.

The same assay, now with this note: G2019S LRRK2, 134 μM ATP (Km ATP), mean values; read-out: LRRK2 pIC50 (converted).
As to `CC1(C)CC(N2CCC(c3cc4nc(Nc5cnn(C6CC6)c5Cl)ncc4cc3Cl)CC2)CO1` (single isomer, unassigned) [Ex-4.116, (R) or (S) 6-chloro-N-(5-chloro-1-cyclopropyl-1H-pyrazol-4-yl)-7-(1-(5,5-dimethyltetrahydrofuran-3-yl)piperidin-4-yl)quinazolin-2-amine], the IC50 is 4.47 nM.
On the same count and under the same terms, in the case of `CC(O)(Cn1ncc(Nc2ncc3cc(Cl)c(C4CCN(C5COC5)CC4)cc3n2)c1Cl)C(F)(F)F` (single isomer, unassigned) [Ex-8.25, (S) or (R) 3-[5-chloro-4-({6-chloro-7-[1-(oxetan-3-yl)piperidin-4-yl]quinazolin-2-yl}amino)-1H-pyrazol-1-yl]-1,1,1-trifluoro-2-methylpropan-2-ol] it was less than 0.631 nM.
